Source: patent US20030180345A1, “Compositions and methods for inhibiting islet dysfunction and autoimmune disorders” (priority 2000, published 2003)
Where two headings read alike, the source gives them in different places.

What was measured:
fetal islet cells = test: IL1β-induced apoptosis in cultured fetal islets (TUNEL); format: cell-based, Wistar rats; conditions: 50 U/ml IL 1β for 24 hours; C and LP groups
Protocol: The effect of in vitro taurine on the effect of IL1β-induced apoptosis was assessed. Fetal islets were isolated as described above in Example 1. On the 5th day of culture, islets were rinsed twice with serum free DME/F12 medium (1:1, v/v, Gibco, Paisley, Scotland) and were incubated in this medium supplemented with taurine at 0.3 or 3 mmol/l for 48 hours. For the final 24 hours of this incubation, IL1β (Endogen, Woburn, Mass.) was added to the incubation medium at a level of 50 U/ml. Apoptosis was quantified by confocal microscopy using TUNEL method, as outlined in Example 1.

fetal islet β cells = test: SNP-induced apoptosis in cultured fetal islets (TUNEL, confocal microscopy); format: cell-based, Wistar rats; conditions: SNP 100 μmol/l
Protocol: Animals and Diets. Adult virgin female Wistar rats were caged overnight with males and copulation was verified the next morning. Animals were maintained at 25° C. with a 10 h-14 h dark-light cycle. Pregnant rats were divided into two groups and fed one of the following isocaloric diets: either a control diet (C) containing 20% protein or a low protein diet (LP) containing 8% protein. The composition of the diet was as described previously by Snoeck et al. 1990 (Biol. Neonate 57, 107-118). The diets were purchased from Hope Farms (Woerden, Holland). Animals in both the groups had free access to water at all times. At 21.5 days of gestation, females were sacrificed by decapitation and fetuses removed.
Islet culture and treatment. Fetal islets were isolated as described by Mourmeaux et al. 1985 (Molecular and Cellular Endocrinology 39:237-246). Islets were cultured in 35 mm Petri-dishes (Falcon plastics, Los Angeles, Calif.) in RPMI 1640 medium (Gibco, Grand Island, N.Y., USA) with 10% Fetal Bovine Serum and antibiotics (penicillin 200 U/ml, streptomycin 0.2 mg/ml). Petri dishes were incubated at 37° C. with 5% CO2 in air. The culture medium was changed daily after the second day. On the 5th day of culture, islets were rinsed twice with serum free DME/F12 medium (1:1, v/v, Gibco, Paisley, Scotland) and subsequently incubated for 42 hours in this medium. […]
TUNEL method for evaluating apoptosis. Apoptosis was evaluated by the TUNEL method described herein, and visualized with confocal microscopy. Cultured islets were fixed in methanol and stored at −20° C. until analysis. The tissue was then washed with phosphate buffered saline (PBS) for 3 min, and a terminal deoxynucleotidyl transferase (TdT) reaction buffer (50 μl) was added. The 50 μl of TdT solution was prepared using 10 μl of 5× concentrated buffer solution (1 mol/l potassium cacodylate; 125 mmol/l Tris-HCl, pH 6.6; 1.26 mg bovine serum albumin). Cobalt chloride (5 μl of 25 mmol/l), 0.5 μl (12.5 units) of TdT (both from Boehringer Mannheim, Germany), and 0.25 nmoles of BODIPY-FL-X-14-dUTP (Molecular Probes, Eugene, Oreg. USA) were added, along with distilled water, up to 50 μl. Islets were incubated in Petri dishes with the TdT reaction buffer for 60 min at 37° C., then rinsed twice with 15 mmol/l EDTA (pH 8.0) in PBS and once with 0.1% Triton X-100 in PBS. Then, 2 ml of PBS containing 2.5 μg/ml of propidium iodide (Molecular Probes, Eugene, Oreg. USA) was added to the dishes for 5 min. Finally, islet cells were washed with 15 mmol/l EDTA (pH 8.0). Islet cells were then double-labelled for apoptotic nuclei, showing the BODIPY-FL-dUTP label in […] and total nuclei with propidium iodide in red.
Confocal microscopy. Staining probes were visualised through a confocal laser scanning microscopy system (MRC-1024 UV; BIO-RAD, UK) equipped with Argon ion and Krypton/Argon ion lasers. BODIPY-FL was excited at 503 nm, ethidium bromide at 510 nm, propidium iodide at 536 nm and Hoechst 33342 at 346 nm. The emissions were recorded respectively at 522/32 nm, 605/32 nm and 455/30 nm. Four to six optical sections were collected at every 15 μm through the islet. The number of BODIPY-FL-positive or ethidium bromide-positive nuclei were reported and expressed as a percentage of the total number of nuclei.
Animals, diets, and fetal islet isolation procedures were conducted as described in Example 1.

[1] = SIN-1
Protocol: Chemiluminescence measurements. Luminol (5-amino-2,3-dihydro-1-4-phtalazinedione) at 400 μmol/l (Sigma Chemical Co.), taurine (0.3 or 3 mmol/l), methionine (0.1 or 1 mmol/l) and β-alanine (0.3 or 3 mmol/l) stock solutions were prepared in PBS. Sydnonimine (SIN-1), also known as 3-morpholinosydnonimine, a source of peroxynitrite, was purchased from Sigma Chemical Co. SIN-1 was prepared as 100 μmol in 1 mol/l NaOH. A reaction was initiated by simultaneous injection of luminol and SIN-1 into wells containing PBS either alone or with supplemental amino acid levels as noted above. Chemiluminescence emitted by luminol in the presence of peroxynitrite was measured every 30 seconds over 20 minutes in a chemifluorophotometer (MicroLumat LB96P, EG&G BERTHOLD), and was quantified as light intensity (10^8 RLU).
Nitric oxide is a reactive free radical which leads to peroxynitrite formation, another reactive free radical, by interaction with superoxide (NO+OO^−→ONOO^−). […] Luminol-derived chemiluminescence induced by peroxynitrite produced by the decomposition of sydnonimine (SIN-1) was evaluated to investigate the possibility that taurine quenched the peroxynitrite formed from NO.

## IL 1β: macrophage-derived proinflammatory cytokine used to induce islet cell apoptosis
Fetal islet cells
  apoptosis level of fetal islets: increased the apoptosis level

## CSCC[C@H](N)C(=O)O [methionine, L-Methionine]
Fetal islet β cells; 0.1 mmol/l methionine, regardless of diet
  apoptosis rate: significantly decreased
Fetal islet β cells; 1.0 mmol/l methionine vs physiological concentration
  apoptosis rate: did not provide additional protection
[1]; methionine 0.1 or 1 mmol/l
  luminol chemiluminescence (peroxynitrite quenching): No change

## NCCC(=O)O [β-alanine, 3-aminopropanoic acid, reference compound]
Fetal islet β cells; β-alanine 0.3 or 3 mmol/l
  rate of apoptosis / protection against damage induced by NO: no protective effect
[1]; β-alanine 0.3 or 3 mmol/l
  luminol chemiluminescence (peroxynitrite quenching): no change

## CC(=O)N(O)CCCCCNC(=O)CCC(=O)N(O)CCCCCNC(=O)CCC(=O)N(O)CCCCCN [DFO, desferioxamine, reference compound]
Fetal islet β cells; LP and C islets, data not shown
  reduction of the cell death induced by SNP: about 30%
